Results reported in patent US20250282749A1 (Tango Therapeutics, Inc., priority 2022, published 2025).

What was measured:
Format in all cases: cell-based
[1] = system: PRMT5 (SDMA) in HAP1 MTAP-intact cell line; assay: SDMA in-cell western assay, HAP1 MTAP-intact cell line; details: Homo sapiens, HAP1 MTAP-intact cell line (endogenous MTAP), read-out: Hap 1 MTAP intact IC50
Excerpt: (§1) HAP1 MTAP-intact is a cell line in which endogenous levels of MTAP are expressed, and HAP1 MTAP-deleted is an MTAP-null cell line.

[2] = system: PRMT5 (SDMA) in HAP1 MTAP-deleted cell line; assay: SDMA in-cell western assay, HAP1 MTAP-deleted cell line; details: for IC50 / IC90: Homo sapiens, SDMA in-cell western, HAP1 MTAP-deleted (MTAP-null) cell line; for Hap1 MTAP intact/deleted ratio: ratio of SDMA in-cell western IC50 in HAP1 MTAP-intact to IC50 in HAP1 MTAP-deleted cell line
Excerpt: as §1

[3] = system: HAP1 MTAP-deleted cell line; assay: viability assay for the MTAP-deleted cell line; details: Homo sapiens

| Structure (SMILES) | IC50 [1] [nM] | IC50 [2] [nM] | IC90 [2] [nM] | Hap1 MTAP intact/deleted ratio [2] | IC50 [3] [nM] |
| --- | --- | --- | --- | --- | --- |
| Cc1cc(NC(=O)C(=O)N2C[C@@H](C)N(C(=O)C3(C)CCN(C)C3)C[C@@H]2c2ccccc2)cnc1N (stereo partly shown) [Compound 34] | > 50 | 5 to 50 | > 125 | B (an IC50 ratio greater than or equal to 15 fold but lower than 30 fold) | 100 to 1000 |
| C[C@@H]1CN(C(=O)C(=O)Nc2cncc3cn[nH]c23)[C@@H](c2ccccc2)CN1C(=O)OC(C)(C)C [Compound 35, tert-butyl (2R,5S)-2-methyl-4-[2-oxo-2-(1H-pyrazolo[4,3-c]pyridin-7-ylamino)acetyl]-5-phenyl-piperazine-1-carboxylate] | > 50 | 5 to 50 | > 125 | A (an IC50 ratio greater than or equal to 30 fold) | < 100 |
| CCc1cc(NC(=O)C(=O)N2C[C@@H](C)N(C(=O)C(C)(C)CN(C)C)C[C@@H]2c2ccccc2)cnc1N [Compound 37] | > 50 | < 5 | < 75 | A (an IC50 ratio greater than or equal to 30 fold) | < 100 |
| Cc1cc(NC(=O)C(=O)N2C[C@@H](C)N(C(=O)C3(C(F)(F)F)CC3)C[C@@H]2c2ccc(F)c(F)c2)cnc1N [Compound 38, N-(6-amino-5-methylpyridin-3-yl)-2-((2S,5R)-2-(3,4-difluorophenyl)-5-methyl-4-(1-(trifluoromethyl)cyclopropanecarbonyl)piperazin-1-yl)-2-oxoacetamide] | > 50 | 5 to 50 | 75 to 125 | C (an IC50 ratio of less than 15 fold) | < 100 |
| Cc1cccc([C@H]2CN(C(=O)C3(C)CC3)[C@H](C)CN2C(=O)C(=O)Nc2cnc(N)c(C)c2)c1 [Compound 40, N-(6-amino-5-methylpyridin-3-yl)-2-((2S,5R)-5-methyl-4-(1-methylcyclopropanecarbonyl)-2-(m-tolyl)piperazin-1-yl)-2-oxoacetamide] | > 50 | 5 to 50 | > 125 | C (an IC50 ratio of less than 15 fold) | < 100 |
| CCc1cc(NC(=O)C(=O)N2C[C@@H](C)N(C(=O)C(C)C)C[C@@H]2c2cccc(N3CCN(C)CC3)c2)cnc1N [Compound 41, N-(6-amino-5-ethylpyridin-3-yl)-2-((2S,5R)-4-isobutyryl-5-methyl-2-(3-(4-methylpiperazin-1-yl)phenyl)piperazin-1-yl)-2-oxoacetamide] | 5 to 50 | < 5 | < 75 | C (an IC50 ratio of less than 15 fold) | < 100 |
| C[C@@H]1CN(C(=O)C(=O)Nc2cncc3cn[nH]c23)[C@@H](c2ccccc2)CN1CC(C)(C)C [Compound 44, 2-oxo-N-(1H-pyrazolo[4,3-c]pyridin-7-yl)-2-[(2S,5R)-4-(2,2-dimethylpropyl)-5-methyl-2-phenyl-piperazin-1-yl]acetamide] | > 50 | < 5 | < 75 | A (an IC50 ratio greater than or equal to 30 fold) | 100 to 1000 |
| C[C@@H]1CN(C(=O)C(=O)Nc2cnc(N)c3cn[nH]c23)[C@@H](c2ccc(F)cc2)CN1C(=O)C(C)(C)C [Compound 46] | 5 to 50 | < 5 | < 75 | C (an IC50 ratio of less than 15 fold) | < 100 |
| CCc1cc(NC(=O)C(=O)N2CCN(C(=O)C3(C(F)(F)F)CC3)C[C@@H]2c2ccc(F)c(Cl)c2)cnc1N [Compound 47, N-(6-amino-5-ethyl-3-pyridyl)-2-[(2S)-2-(3-chloro-4-fluoro-phenyl)-4-[1-(trifluoromethyl)cyclopropanecarbonyl]piperazin-1-yl]-2-oxo-acetamide] | > 50 | > 50 | > 125 | C (an IC50 ratio of less than 15 fold) | > 1000 |
| Cc1cc(NC(=O)C(=O)N2C[C@@H](C)N(C(=O)CC3(C)CC3)C[C@@H]2c2ccccc2)cnc1N [Compound 49] | > 50 | 5 to 50 | 75 to 125 | C (an IC50 ratio of less than 15 fold) | 100 to 1000 |
| CC(=O)N1C[C@H](c2ccccc2)N(C(=O)C(=O)Nc2cnc(N)c3cn[nH]c23)C[C@H]1C [Compound 52] | > 50 | 5 to 50 | < 75 | B (an IC50 ratio greater than or equal to 15 fold but lower than 30 fold) | < 100 |
| C[C@@H]1CN(C(=O)C(=O)Nc2cnc(N)c3cn[nH]c23)[C@@H](c2ccccc2)CN1C(=O)C(C)(C)CN(C)C [Compound 54, N-(4-amino-1H-pyrazolo[4,3-c]pyridin-7-yl)-2-oxo-2-[(2S,5R)-4-[3-(dimethylamino)-2,2-dimethyl-propanoyl]-5-methyl-2-phenyl-piperazin-1-yl]acetamide] | 5 to 50 | 5 to 50 | < 75 | C (an IC50 ratio of less than 15 fold) | < 100 |
| C[C@@H]1CN(C(=O)C(=O)Nc2cncc3[nH]ncc23)[C@@H](c2ccccc2)CN1C(=O)C(C)(C)C [Compound 55, 2-((2S,5R)-5-methyl-2-phenyl-4-pivaloylpiperazin-1-yl)-2-oxo-N-(1H-pyrazolo[3,4-c]pyridin-4-yl)acetamide] | > 50 | 5 to 50 | 75 to 125 | C (an IC50 ratio of less than 15 fold) | < 100 |
| C[C@@H]1CN(C(=O)C(=O)Nc2cnc(N)c3cn[nH]c23)[C@@H](c2ccccc2)CN1C [Compound 57] | > 50 | < 5 | < 75 | B (an IC50 ratio greater than or equal to 15 fold but lower than 30 fold) | < 100 |
| CCc1cc(NC(=O)C(=O)N2C[C@@H](C)N(C(=O)C3(C)CC3)C[C@@H]2c2ccccc2)cnc1N [Compound 58, N-(6-amino-5-ethylpyridin-3-yl)-2-((2S,5R)-5-methyl-4-(1-methylcyclopropanecarbonyl)-2-phenylpiperazin-1-yl)-2-oxoacetamide] | > 50 | 5 to 50 | < 75 | C (an IC50 ratio of less than 15 fold) | < 100 |
| C[C@@H]1CN(C(=O)C(=O)Nc2cnc(N)c(C3CC3)c2)[C@@H](c2ccc(F)c(F)c2)CN1C(=O)C1(C)CC1 [Compound 59, N-(6-amino-5-cyclopropylpyridin-3-yl)-2-((2S,5R)-2-(3,4-difluorophenyl)-5-methyl-4-(1-methylcyclopropanecarbonyl)piperazin-1-yl)-2-oxoacetamide] | > 50 | < 5 | < 75 | B (an IC50 ratio greater than or equal to 15 fold but lower than 30 fold) | < 100 |
| CCc1cc(NC(=O)C(=O)N2C[C@@H](C)N(C(=O)C3(C)CC3)C[C@@H]2c2ccc(F)cc2)cnc1N [Compound 60, N-(6-amino-5-ethylpyridin-3-yl)-2-((2S,5R)-2-(4-fluorophenyl)-5-methyl-4-(1-methylcyclopropanecarbonyl)piperazin-1-yl)-2-oxoacetamide] | 5 to 50 | < 5 | < 75 | C (an IC50 ratio of less than 15 fold) | < 100 |
